Here are results for 19 molecules from PubChem BioAssay AID330 (DTP/NCI, 2004).

Several values for one entry are separate records, joined by “and”; a condition that tells them apart may be missing. Equal values may be shown once. Toxic doses and inconclusive results are not listed.

The test system of this assay is P388 leukemia ip, CD2F1 mice, survival T/C. Briefly: NCI In Vivo Anticancer Drug Screen. Data for tumor model P388 Leukemia (intraperitoneal) in CD2F1 (CDF1) mice. Conditions: endpoint: median survival time, higher = longer survival. Put shortly:
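Mice carrying the transplanted tumor received test compound or vehicle. Survival was recorded in each group, and the value is the treated-group measurement divided by that of the vehicle-treated control group.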

The mark [1] stands for this setting: dose: 100.0 mg/kg/injection, schedule: Q01DX009 (ip), vehicle: saline with Tween-80.
The mark [2] stands for this setting: dose: 200.0 mg/kg/injection, schedule: Q01DX009 (ip), vehicle: saline with Tween-80.
Setting [3] is: dose: 60.0 mg/kg/injection, schedule: Q01DX005 (ip), vehicle: Klucel (hydroxypropylcellulose) (HPC).
Where [4] appears, read: dose: 120.0 mg/kg/injection, schedule: Q01DX005 (ip), vehicle: Klucel (hydroxypropylcellulose) (HPC).
[5] abbreviates: dose: 240.0 mg/kg/injection, schedule: Q01DX005 (ip), vehicle: Klucel (hydroxypropylcellulose) (HPC).
Setting [6] is: dose: 60.0 mg/kg/injection, schedule: Q01DX005 (ip), vehicle: saline with Tween-80.
[7] abbreviates: dose: 120.0 mg/kg/injection, schedule: Q01DX005 (ip), vehicle: saline with Tween-80.
The mark [8] stands for this setting: dose: 240.0 mg/kg/injection, schedule: Q01DX005 (ip), vehicle: saline with Tween-80.
Setting [9] is: dose: 50.0 mg/kg/injection, schedule: Q01DX005 (ip), vehicle: saline with Tween-80.
The mark [10] stands for this setting: dose: 100.0 mg/kg/injection, schedule: Q01DX005 (ip), vehicle: saline with Tween-80.
Setting [11] is: dose: 12.5 mg/kg/injection, schedule: Q01DX009 (ip), vehicle: saline.
Where [12] appears, read: dose: 25.0 mg/kg/injection, schedule: Q01DX009 (ip), vehicle: saline.

Take `CC(=O)OC(OC(C)=O)c1ccc([N+](=O)[O-])s1`: the T/C (dose: 50.0 mg/kg/injection, schedule: Q01DX009 (ip), vehicle: Klucel (hydroxypropylcellulose) (HPC)) was 109 % of control and the T/C (dose: 100.0 mg/kg/injection, schedule: Q01DX009 (ip), vehicle: Klucel (hydroxypropylcellulose) (HPC)) was 87 % of control.
For `C[n+]1ccc(C(=O)O)cc1` (tested in a mixture with another compound), the T/C reads like this: (dose: 100.0 mg/kg/injection, schedule: Q04DX003 (ip), vehicle: saline) 104 % of control; (dose: 200.0 mg/kg/injection, schedule: Q04DX003 (ip), vehicle: saline) 98 % of control; (dose: 400.0 mg/kg/injection, schedule: Q04DX003 (ip), vehicle: saline) 98 % of control.
As for `CC[C@@]1(O)C(=O)OCc2c1cc1n(c2=O)Cc2cc3c(OC)cccc3nc2-1`, the T/C is, setting by setting: (dose: 0.39 mg/kg/injection, schedule: Q04DX003 (ip), vehicle: other) 115 % of control; (dose: 1.0 mg/kg/injection, schedule: Q01DX009 (ip), vehicle: saline with Tween-80) 217 % of control; (dose: 1.5 mg/kg/injection, schedule: Q01DX009 (ip), vehicle: saline with Tween-80) 181 % of control and 192 % of control; (dose: 2.25 mg/kg/injection, schedule: Q01DX009 (ip), vehicle: saline with Tween-80) 100 % of control; (dose: 3.0 mg/kg/injection, schedule: Q01DX009 (ip), vehicle: saline with Tween-80) 103 % of control; (dose: 3.13 mg/kg/injection, schedule: Q04DX003 (ip), vehicle: other) 191 % of control. The T/C (dose: 6.25 mg/kg/injection, schedule: Q04DX003 (ip), vehicle: other) was 90 % of control.
For the molecule `CC[C@@]1(O)C[C@H](OC2CC(N(C)C)C(OC3CC4OC5CC(=O)C(C)OC5OC4C(C)O3)C(C)O2)c2c(cc3c(c2O)C(=O)c2c(O)cccc2C3=O)[C@H]1C(=O)OC` (some centres not stated), the T/C (dose: 0.12 mg/kg/injection, schedule: Q01DX009 (ip), vehicle: water) is 117 % of control; the T/C (dose: 0.25 mg/kg/injection, schedule: Q01DX009 (ip), vehicle: water) was 115 % of control; the T/C (dose: 0.5 mg/kg/injection, schedule: Q01DX009 (ip), vehicle: water) is 110 % of control; the T/C (dose: 1.0 mg/kg/injection, schedule: Q01DX009 (ip), vehicle: water) was 110 % of control; the T/C (dose: 4.0 mg/kg/injection, schedule: Q01DX009 (ip), vehicle: water) was 162 % of control.
Regarding `CN(O)C1=c2ccccc2=NC1=O`, the T/C (dose: 50.0 mg/kg/injection, schedule: Q01DX009 (ip), vehicle: saline with Tween-80) was 91 % of control; the T/C under setting [1] is 92 % of control; the T/C under setting [2] is 114 % of control.
Regarding `O=[N+]([O-])c1nccn1CC(O)CCN1CCOCC1` (configuration not stated), the T/C is 110 % of control (dose: 25.0 mg/kg/injection, schedule: Q01DX005 (ip), vehicle: saline); 102 % of control (dose: 50.0 mg/kg/injection, schedule: Q01DX005 (ip), vehicle: saline); 102 % of control (dose: 100.0 mg/kg/injection, schedule: Q01DX005 (ip), vehicle: saline); 106 % of control (dose: 200.0 mg/kg/injection, schedule: Q01DX005 (ip), vehicle: saline); 101 % of control (dose: 400.0 mg/kg/injection, schedule: Q01DX005 (ip), vehicle: saline).
As for `Cc1cc(C=C2C(=O)c3ccccc3C2=O)cc(C)c1O`, the T/C reads like this: (dose: 100.0 mg/kg/injection, schedule: Q04DX002 (ip), vehicle: saline) 97 % of control; (dose: 200.0 mg/kg/injection, schedule: Q04DX002 (ip), vehicle: saline) 101 % of control; (dose: 400.0 mg/kg/injection, schedule: Q04DX002 (ip), vehicle: saline) 93 % of control.
Take `CCOC(=O)c1c(N=P(c2ccccc2)(c2ccccc2)c2ccccc2)n(C)c(=O)n(C)c1=O`: the T/C is, setting by setting: under setting [3], 105 % of control; under setting [4], 99 % of control; under setting [5], 98 % of control.
As for `COc1cc2c(cc1OC)C(Cc1ccccc1NC(=O)c1ccc(C(=O)Nc3ccccc3CC3c4cc(OC)c(OC)cc4CCN3C)cc1)N(C)CC2` (configuration not stated), the T/C is, setting by setting: under setting [6], 89 % of control; under setting [7], 88 % of control; under setting [8], 94 % of control.
For `COc1cc(N=Nc2ccccc2)cc(/C=N\NC(=S)Nc2ccccc2)c1O`, the T/C is, setting by setting: under setting [9], 91 % of control; under setting [10], 94 % of control.
With `C[n+]1ccc(C(c2ccccc2)c2ccccc2)cc1`, the T/C reads like this: (dose: 6.25 mg/kg/injection, schedule: Q01DX009 (ip), vehicle: saline) 104 % of control; under setting [11], 112 % of control; under setting [12], 100 % of control.
In the case of `COc1cc(-c2ccc(N=Nc3ccc(N)nc3N)c(OC)c2)ccc1N=Nc1ccc(N)nc1N`, the T/C was 101 % of control under setting [9]; 104 % of control under setting [10]; 90 % of control (dose: 200.0 mg/kg/injection, schedule: Q01DX005 (ip), vehicle: saline with Tween-80).
With `Cc1c(NC(=O)CCl)c(=O)oc2c(C)c3occc(=O)c3cc12`, the T/C (dose: 30.0 mg/kg/injection, schedule: Q01DX005 (ip), vehicle: saline with Tween-80) was 100 % of control; the T/C under setting [6] was 89 % of control and 97 % of control; the T/C under setting [7] was 90 % of control; the T/C under setting [8] was 99 % of control.
For the molecule `CN(C)CCN(C)CC(C)(C)C(=O)/C=C/c1ccccc1`, the T/C reads like this: (dose: 60.0 mg/kg/injection, schedule: Q01DX005 (ip), vehicle: saline) 106 % of control; (dose: 120.0 mg/kg/injection, schedule: Q01DX005 (ip), vehicle: saline) 107 % of control.
Take `CN(C)[C@@H]1C(=O)C(C(=O)NCc2nc3[nH]cnc(=S)c3[nH]2)=C(O)[C@@]2(O)C(=O)C3=C(O)c4c(O)cccc4[C@@](C)(O)[C@H]3C[C@@H]12`: the T/C runs as follows: under setting [1], 100 % of control; (dose: 100.0 mg/kg/injection, schedule: Q04DX003 (ip), vehicle: saline with Tween-80) 95 % of control; under setting [2], 100 % of control; (dose: 200.0 mg/kg/injection, schedule: Q04DX003 (ip), vehicle: saline with Tween-80) 95 % of control; (dose: 400.0 mg/kg/injection, schedule: Q01DX009 (ip), vehicle: saline with Tween-80) 110 % of control; (dose: 400.0 mg/kg/injection, schedule: Q04DX003 (ip), vehicle: saline with Tween-80) 100 % of control.
In the case of `C=C(CN(C)C)C(=O)c1ccccc1`, the T/C reads like this: (dose: 0.94 mg/kg/injection, schedule: Q01DX005 (ip), vehicle: saline) 122 % of control; (dose: 1.25 mg/kg/injection, schedule: Q01DX005 (ip), vehicle: saline) 112 % of control; (dose: 1.88 mg/kg/injection, schedule: Q01DX005 (ip), vehicle: saline) 112 % of control; (dose: 2.5 mg/kg/injection, schedule: Q01DX005 (ip), vehicle: saline) 112 % of control; (dose: 3.75 mg/kg/injection, schedule: Q01DX005 (ip), vehicle: saline) 99 % of control and 97 % of control; (dose: 5.0 mg/kg/injection, schedule: Q01DX005 (ip), vehicle: saline) 98 % of control and 104 % of control.
As for `Cc1ccc(SCc2cn(C3CC(O)C(CO)O3)c(=O)[nH]c2=O)cc1` (configuration not stated), the T/C was 99 % of control under setting [3], 95 % of control under setting [4] and 92 % of control under setting [5].
For `O=C(NC1COB(c2ccc(Br)cc2)OC1c1ccc([N+](=O)[O-])cc1)C(Cl)Cl` (configuration not stated) the same measures were 102 % of control, 102 % of control and 103 % of control.
Take `O=C(O)C1C[n+]2ccccc2O1` (configuration not stated): the T/C runs as follows: under setting [11], 100 % of control; (dose: 12.5 mg/kg/injection, schedule: Q04DX003 (ip), vehicle: saline) 91 % of control; under setting [12], 100 % of control; (dose: 25.0 mg/kg/injection, schedule: Q04DX003 (ip), vehicle: saline) 100 % of control; (dose: 50.0 mg/kg/injection, schedule: Q01DX009 (ip), vehicle: saline) 109 % of control; (dose: 50.0 mg/kg/injection, schedule: Q04DX003 (ip), vehicle: saline) 95 % of control.
